{"source": "patent US20240216395A1", "about": "“19-NOR C3,3-DISUBSTITUTED C21 -N-PYRAZOLYL STEROID FOR USE IN TREATING MAJOR DEPRESSIVE DISORDER AND […]” (priority 2021, published 2024)", "key": {"[1]": {"system": "nondependent, recreational users of CNS depressants", "assay": "Abuse potential main study, treatment phase: subjective VAS measures (Drug Liking, Overall Drug Liking, Take Drug Again, High, Good/Bad/Any Drug Effects, Alertness/Drowsiness, Drug Similarity)"}, "[2]": {"system": "nondependent, recreational users of CNS depressants", "assay": "Abuse potential main study, treatment phase: TEAEs", "format": "in vivo, human", "conditions": "treatment phase", "protocol": "The main study consisted of 4 phases (FIG. 30B). The screening phase was a 1-day visit occurring within 21 days of the beginning of the qualification phase. The qualification phase was a 4-day, inpatient period to ensure participants could discriminate between alprazolam (active comparator) and placebo, and that they could tolerate the alprazolam 2-mg doses. Participants received single-oral doses of alprazolam 2 mg and placebo in a crossover manner 24 hours apart, and if they could discriminate between the two medications, they continued to the treatment phase. The treatment phase was a double-blind, active- and placebo-controlled, 6-way crossover design where participants were randomized equally to a single oral dose of 1 of 6 treatments: placebo, alprazolam (1.5 and 3 mg), and Compound (1) (30, 60, and 90 mg). The Compound (1) doses were based on the results from the first part, dose selection, and treatments were separated by 7 days. The follow-up phase was a 1-day visit occurring 7 (2) days after the treatment phase.\nSafety and tolerability endpoints included the frequency and severity of AEs and SAEs, the change from baseline in clinical laboratory assessments, vital signs, and ECG, and suicidality assessed by the Columbia-Suicide Severity Rating Scale (C-SSRS).\nThe dose selection safety set included all participants who received 1 dose of Compound (1). The main study qualification safety set included all participants who received ≥1 dose of alprazolam. For the treatment phase, the randomized set included all participants who were randomized and the safety set included all participants who received ≥1 dose of Compound (1) or alprazolam. The completer set included all participants in the randomized set who completed all treatment periods, had sufficient data for evaluation of the primary endpoint, and had ≥1 observation within 2 hours of Tmax for each treatment for Drug Liking VAS scores. […] The PK set included all participants in the treatment phase who received 1 dose of Compound (1) and had 1 PK sample after dosing."}, "[3]": {"conditions": "Alprazolam 1.5 mg - placebo (study validity)"}, "[4]": {"conditions": "Alprazolam 3 mg - placebo (study validity)"}}, "data": [{"molecule": "Cc1nnc2n1-c1ccc(Cl)cc1C(c1ccccc1)=NC2", "note": "[Alprazolam, alprazolam, reference compound]", "values": [{"measurement": "Drug Liking Emax difference", "setting": "[1]; Alprazolam 1.5 mg - placebo", "result": 22.50}, {"measurement": "Overall Drug Liking Emax difference", "setting": "[1]; Alprazolam 1.5 mg - placebo", "result": 24.00}, {"measurement": "Take Drug Again Emax difference", "setting": "[1]; Alprazolam 1.5 mg - placebo", "result": 24.00}, {"measurement": "Bad Drug Effects Emax difference", "setting": "[1]; [3]", "result": 0.00}, {"measurement": "Good Drug Effects Emax difference", "setting": "[1]; [3]", "result": 49.00}, {"measurement": "High Effects Emax difference", "setting": "[1]; [3]", "result": 43.80}, {"measurement": "Drug Liking Emax difference", "setting": "[1]; Alprazolam 3 mg - placebo", "result": 25.52}, {"measurement": "Overall Drug Liking Emax difference", "setting": "[1]; Alprazolam 3 mg - placebo", "result": 26.00}, {"measurement": "Take Drug Again Emax difference", "setting": "[1]; Alprazolam 3 mg - placebo", "result": 29.00}, {"measurement": "Bad Drug Effects Emax difference", "setting": "[1]; [4]", "result": 1.00}, {"measurement": "Good Drug Effects Emax difference", "setting": "[1]; [4]", "result": 53.47}, {"measurement": "High Effects Emax difference", "setting": "[1]; [4]", "result": 51.65}, {"measurement": "Drug Similarity: Placebo Similarity median score", "setting": "[1]; all dosages, 12 hours postdose", "result": "zero"}, {"measurement": "Drug Similarity: Benzodiazepines Similarity median score", "setting": "[1]; alprazolam 1.5 mg", "result": 92.5}, {"measurement": "Drug Similarity: Opioids Similarity median score", "setting": "[1]; alprazolam 3 mg", "result": 40.0}, {"measurement": "Back pain (TEAE)", "setting": "[2]; Alprazolam 1.5 mg (n = 71)", "result": 0, "unit": "n"}, {"measurement": "Confusional state (TEAE)", "setting": "[2]; Alprazolam 1.5 mg (n = 71)", "result": 0, "unit": "n"}, {"measurement": "Fine motor skill dysfunction (TEAE)", "setting": "[2]; Alprazolam 1.5 mg (n = 71)", "result": 0, "unit": "n"}, {"measurement": "Hiccups (TEAE)", "setting": "[2]; Alprazolam 1.5 mg (n = 71)", "result": 0, "unit": "n"}, {"measurement": "Irritability (TEAE)", "setting": "[2]; Alprazolam 1.5 mg (n = 71)", "result": 0, "unit": "n"}, {"measurement": "Swelling face (TEAE)", "setting": "[2]; Alprazolam 1.5 mg (n = 71)", "result": 0, "unit": "n"}, {"measurement": "Tremor (TEAE)", "setting": "[2]; Alprazolam 1.5 mg (n = 71)", "result": 0, "unit": "n"}, {"measurement": "Feeling drunk (TEAE)", "setting": "[2]; Alprazolam 3 mg (n = 66)", "result": 0, "unit": "n"}, {"measurement": "Fine motor skill dysfunction (TEAE)", "setting": "[2]; Alprazolam 3 mg (n = 66)", "result": 0, "unit": "n"}, {"measurement": "Irritability (TEAE)", "setting": "[2]; Alprazolam 3 mg (n = 66)", "result": 0, "unit": "n"}, {"measurement": "Swelling face (TEAE)", "setting": "[2]; Alprazolam 3 mg (n = 66)", "result": 0, "unit": "n"}, {"measurement": "Tremor (TEAE)", "setting": "[2]; Alprazolam 3 mg (n = 66)", "result": 0, "unit": "n"}, {"measurement": "Upper respiratory tract infection (TEAE)", "setting": "[2]; Alprazolam 3 mg (n = 66)", "result": 0, "unit": "n"}]}]}
